According to US20180057505A1, “BICYCLIC HETEROARYL COMPOUNDS USEFUL AS INHIBITORS OF THE PAR-2 SIGNALING PATHWAY” (VERTEX PHARMACEUTICALS INCORPORATED, priority 2015, published 2018):

Assays:
[1] = In vivo rat pharmacokinetics experiments; conditions: for F: oral gavage, dose 1 to 600 mg/kg
Method: Example 99: Protocol for Testing PAR2 Compounds In Vivo Rat Pharmacokinetics Experiments
Compounds delivered by intravenous route were formulated using a solution formulation consisting of 5% N-methylpyrrolidone 10% Vitamin E-TPGS and 85% water (v/v/) or a solution formulation consisting of 25% N-methylpyrrolidone 35% polyethylene glycol 400 and 40% water (v/v/). Intravenous formulations were administered by a bolus injection (over approximately 10 seconds) using a hypodermic needle attaches to a syringe (tail vein). The dose volume was varied from 1 to 2 mL/kg and the dose was varied from 0.5 to 1 mg/kg. Compounds delivered orally were formulated as a solution formulation consisting of 5% N-methylpyrrolidone 10% Vitamin E-TPGS and 85% water (v/v/) or as fine suspension using a cellulose derivative suspending agent with or without the addition of a wetting agent/surfactant. Milling of large particles was performed as needed to reduce particle size using focused electroacoustic milling, homogenization or low energy media milling. A spray-dried solid dispersion was prepared for key compounds using 1:1 combination with cellulose derivatives. Test compounds were administered orally by gavage using a gavage plastic needle attached to a syringe. The dose volume was varied from 5 to 10 mL/kg and the dose was varied from 1 to 600 mg/kg.
Rats were bled by venipuncture (jugular vein) and the samples were collected into tubes containing K3EDTA. The tubes were placed on wet ice until processed. The samples were centrifuged for approximately 10 minutes (at approximately 4° C.) within approximately 30 minutes of collection to prepare plasma or diluted in citrate buffer (1:3) and stored frozen (approximately −30° C.). Thawed plasma or whole blood samples were extracted by protein precipitation using an organic solvent followed by centrifugation. The supernatants were separated by high-performance liquid chromatography coupled to mass spectrometry detection. A calibration curve was prepared using reference standard compounds spiked into either blank plasma or whole blood matrices and extracted similarly to unknown samples. Pharmacokinetic parameters were calculated using non-compartmental analysis.

[2] = test system: carrageenan induced paw edema; assay: Rat carrageenan-induced paw edema model; type: in vivo; conditions: given 0.5-3 hour before carrageenan
Method: Example 100: In Vivo Pharmacological Evaluation of PAR2 Pathway Inhibitors Subjects and Housing and Rat Carrageenan-Induced Paw Edema Model Male Sprague Dawley rats were housed in groups in a temperature controlled room and were acclimatized in the animal facility for at least three days prior to use. Experiments were performed during the light phase of the cycle. Animals have food and water ad libitum. Peripheral inflammation was induced by intra-plantar administration of 100 ul of a 1% w/volume (in saline) carrageenan solution under isoflurane anesthesia. The degree of swelling was assessed using the plethysmometer at 2-3-4-5-6 h after carrageenan injection. Test compound or vehicle (0.5% MC/0.1% SDS) was systemically administered at the indicated doses in a volume of 5 mL/kg either 0.5-3 hour before carrageenan challenge (Table 4).

[3] = test system: Thrombin-stimulated Ca2+ response in HT-29 cells; assay: Ca FLIPR TETRA assay, ANTAGONIST mode, activator 1 U/mL Thrombin; type: cell-based; conditions: Homo sapiens; HT-29 cells, activator 1 U/mL Thrombin
How it was run: (§1)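 Antagonist-mode FLIPR Tetra Ca2+ read: dye-loaded HT-29 cells preincubated 30 min at r.t. with compound (first read checks agonism alone), then challenged with final 3.1 U/mL trypsin, 8 μM SLIGKV, 1 U/mL thrombin or 0.6 μM UTP. Cells plated overnight in 1% FBS McCoy's; Calcium 5 loading 45 min 37 °C plus 15 min r.t.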

PAR2 (HT-29 cells) [4] = molecular target: T1, PAR2 (HT-29 cells) (Homo sapiens, UniProt P55085); assay: Ca FLIPR TETRA assay, ANTAGONIST mode, activator 8 μM SLIGKV; type: cell-based; conditions: HT-29 cells; activator 8 μM SLIGKV; Method A: maximal concentration of antagonist 0.1, 1 or 2 μM
T1 construct: host or cells: HT-29
T1 sequence (P55085 26-397): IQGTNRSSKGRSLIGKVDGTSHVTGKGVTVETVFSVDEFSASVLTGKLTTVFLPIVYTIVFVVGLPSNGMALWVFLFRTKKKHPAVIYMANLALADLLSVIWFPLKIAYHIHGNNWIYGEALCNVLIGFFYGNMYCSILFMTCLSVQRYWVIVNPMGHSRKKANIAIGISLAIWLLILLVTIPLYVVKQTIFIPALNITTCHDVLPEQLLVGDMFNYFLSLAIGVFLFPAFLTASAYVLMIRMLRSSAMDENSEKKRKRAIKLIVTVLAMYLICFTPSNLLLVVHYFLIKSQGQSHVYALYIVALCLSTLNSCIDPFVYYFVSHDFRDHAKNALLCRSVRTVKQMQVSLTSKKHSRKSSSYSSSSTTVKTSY
How it was run: as §1

PAR2 (HT-29 cells) [5] = molecular target: T1, PAR2 (HT-29 cells); assay: Ca FLIPR TETRA assay, ANTAGONIST mode, activator 3.1 U/mL trypsin; type: cell-based; conditions: HT-29 cells; activator 3.1 U/mL trypsin; Method A: maximal concentration of antagonist 0.1, 1 or 2 μM
How it was run: as §1

[6] = test system: UTP-stimulated Ca2+ response in HT-29 cells; assay: Ca FLIPR TETRA assay, ANTAGONIST mode, activator 0.6 μM UTP; type: cell-based; conditions: Homo sapiens; HT-29 cells, activator 0.6 μM UTP
How it was run: as §1

[7] = intravenous bolus 0.5 to 1 mg/kg, non-compartmental analysis

SMILES	Clp [1, 7]	T ½ ([1]; non-compartmental analysis)	F [1]	% inhibition ([2]; dose 20 mg/kg)	also measured
CC(C)(C)c1cc(-c2ccc(Cl)c(F)c2)nc2cc(C(=O)N3CCN(c4cn[nH]c4)C(=O)C3(C)C)oc12 [Compound I-260]	0.204 L/h/kg	30.7 h	87%	0.4%	–
CC(C)(C)c1cc(-c2ccc(Cl)c(F)c2)nc2cc(C(=O)N3CCN(c4ccc(C(=O)O)cn4)CC3(C)C)oc12 [Compound I-287]	0.312 L/h/kg	3.7 h	58%	–	% inhibition ([2]; dose 200 mg/kg): 30%
CC1(C)CCC(c2cc(C(C)(C)C)c3oc(C(=O)N4CCN(C(=O)[C@H]5CC[C@@](C)(C(=O)O)CC5)CC4(C)C)cc3n2)CC1 [Compound I-316]	0.834 L/h/kg	1.0 h	49%	38%	% inhibition ([2]; dose 5 mg/kg): 25%
CC(C)(C)c1cc(-c2ccc(Cl)c(F)c2)nc2cc(C(=O)N3CCN(C(=O)CC4(C(=O)O)CCCC4)CC3(C)C)oc12 [Compound I-324]	1.28 L/h/kg	0.47 h	19%	71%	–
CC(C)(C)c1cc(-c2ccc(Cl)c(F)c2)nc2cc(C(=O)N3CCN(c4ncc(-c5nnn[nH]5)cn4)CC3(C)C)oc12 [Compound I-331]	0.534 L/h/kg	1.6 h	–	27%	–
CC1(C)CCC(c2cc(C(C)(C)C)c3oc(C(=O)N4CCN(C(=O)CC5(C(=O)O)CCC5)CC4(C)C)cc3n2)CC1 [Compound I-338]	1.98 L/h/kg	0.5 h	–	0%	–
CC(C)[C@H](CC(=O)N1CCN(C(=O)c2cc3nc(-c4ccc(Cl)c(F)c4)cc(C(C)(C)C)c3o2)C(C)(C)C1)C(=O)O [Compound I-343]	3.18 L/h/kg	0.33 h	27%	29%	–
CC(C)(C)c1cc(-c2ccc(Cl)c(F)c2)nc2cc(C(=O)N3CCN(c4cccc(-c5nnn[nH]5)n4)CC3(C)C)oc12 [Compound I-344]	0.612 L/h/kg	0.99 h	24%	43%	–
CC1(C)CCC(c2cc(C(C)(C)C)c3oc(C(=O)N4CCN(c5cccc(-c6nnn[nH]6)n5)CC4(C)C)cc3n2)CC1 [Compound I-345]	0.456 L/h/kg	1.8 h	52%	–	% inhibition ([2]; dose 15 mg/kg): 28%
CC1(C)CCC(c2cc(C(C)(C)C)c3oc(C(=O)N4CCN(c5ncc(-c6nnn[nH]6)cn5)CC4(C)C)cc3n2)CC1 [Compound I-346]	0.99 L/h/kg	0.44 h	4.7%	60%	–
Cc1ccc(C(=O)O)c(N2CCN(C(=O)c3cc4nc(-c5ccc(Cl)c(F)c5)cc(C(C)(C)C)c4o3)C(C)(C)C2)n1 [Compound I-352]	0.39 L/h/kg	5.6 h	48%	61%	–
CC1(C)CCC(c2cc(C(C)(C)C)c3oc(C(=O)N4CCN(C(=O)CCC(C)(C)C(=O)O)CC4(C)C)cc3n2)CC1 [Compound I-354]	1.92 L/h/kg	0.57 h	52%	60%	–
CC(C)(CCC(=O)N1CCN(C(=O)c2cc3nc(-c4ccc(Cl)c(F)c4)cc(C(C)(C)C)c3o2)C(C)(C)C1)C(=O)O [Compound I-367]	1.68 L/h/kg	0.32 h	2.7%	68%	–
CC(C)(C)c1cc(-c2ccc(Cl)c(F)c2)nc2cc(C(=O)N3CCN(c4ccn[nH]4)C(=O)C3(C)C)oc12 [Compound I-406]	0.216 L/h/kg	23.2 h	66%	21%	–
CC1(C)CCC(c2cc(C(C)(C)C)c3oc(C(=O)N4CCN(C(=O)[C@H]5CC[C@@](C)(C(=O)O)CC5)CC4(C)C)cc3n2)CC1 [Example I-316]	–	–	–	–	IC50 [3]: > 2 µM; IC50 (PAR2 (HT-29 cells) [4]): 0.0002 µM; IC50 (PAR2 (HT-29 cells) [5]): 0.0002 µM; % inhibition ([2]; dose 15 mg/kg): 50%; % inhibition ([2]; dose 40 mg/kg): 66%; % inhibition ([2]; dose 100 mg/kg): 81%; % inhibition ([2]; dose 250 mg/kg): 79%; IC50 [6]: > 2 µM
CC1(C)CCC(c2cc(C(C)(C)C)c3oc(C(=O)N4CCN(c5cccc(C(=O)O)n5)CC4(C)C)cc3n2)CC1 [Example I-449]	–	–	–	–	IC50 [3]: > 1.01 µM; IC50 (PAR2 (HT-29 cells) [4]): 0.0009 µM; IC50 (PAR2 (HT-29 cells) [5]): 0.0019 µM; % inhibition ([2]; dose 40 mg/kg): 49%; % inhibition ([2]; dose 100 mg/kg): 73%; IC50 [6]: 0.66 µM
CC(C)(C)c1cc(-c2ccc(Cl)c(F)c2)nc2cc(C(=O)N3CCC(N)CC3(C)C)oc12 (stereo not shown) [Example I-548]	–	–	–	–	IC50 [3]: > 2 µM; IC50 (PAR2 (HT-29 cells) [4]): 0.69 µM; IC50 (PAR2 (HT-29 cells) [5]): 0.64 µM; IC50 [6]: 1.8 µM
CNC1CCN(C(=O)c2cc3nc(-c4ccc(Cl)c(F)c4)cc(C(C)(C)C)c3o2)C(C)(C)C1 (stereo not shown) [Example I-549]	–	–	–	–	IC50 [3]: > 2 µM; IC50 (PAR2 (HT-29 cells) [4]): 1.1 µM; IC50 (PAR2 (HT-29 cells) [5]): 1.4 µM; IC50 [6]: > 2 µM

Second part, led by results:

Clp [1, 7]	T ½ ([1]; non-compartmental analysis)	F [1]	SMILES	% inhibition ([2]; dose 20 mg/kg)	also measured
0.39 L/h/kg	2.0 h	70%	Cc1nc(N2CCN(C(=O)c3cc4nc(-c5ccc(Cl)c(F)c5)cc(C(C)(C)C)c4o3)C(C)(C)C2)ccc1C(=O)O [Compound I-411]	–	% inhibition ([2]; dose 8 mg/kg): 36%
0.3 L/h/kg	5.3 h	119%	CC1(C)CCC(c2cc(C(C)(C)C)c3oc(C(=O)N4CCN(c5cccc(C(=O)O)n5)CC4(C)C)cc3n2)CC1 [Compound I-449]	–	% inhibition ([2]; dose 15 mg/kg): 22%
0.552 L/h/kg	5.1 h	46%	Cc1nc(N2CCN(C(=O)c3cc4nc(C5CCC(C)(C)CC5)cc(C(C)(C)C)c4o3)C(C)(C)C2)ncc1C(=O)O [Compound I-465]	6%	–
–	–	125%	CC(C)(C)c1cc(-c2ccc(Cl)c(F)c2)nc2cc(C(=O)N3CCN(c4cccc(C(=O)O)n4)CC3(C)C)oc12 [Example I-448, 6-[4-[7-tert-butyl-5-(4-chloro-3-fluoro-phenyl)furo[3,2-b]pyridine-2-carbonyl]-3,3-dimethyl-piperazin-1-yl]pyridine-2-carboxylic acid]	21%	clearance ([1]; plasma, intravenous bolus 0.5 to 1 mg/kg, non-compartmental analysis, read-out: Clp): 0.558 L/h/kg; half-life ([1]; plasma, non-compartmental analysis, read-out: T ½ (converted)): 5.2 h; IC50 [3]: 2 µM; IC50 (PAR2 (HT-29 cells) [4]): 0.0002 µM; IC50 (PAR2 (HT-29 cells) [5]): 0.0003 µM; % inhibition ([2]; dose 0.8 mg/kg): 11%; % inhibition ([2]; dose 3 mg/kg): 18%; % inhibition ([2]; dose 10 mg/kg): 30%; IC50 [6]: 1.79 µM
